Test results taken from patent US20100041892A1, “Therapeutic agent for diabetes” (priority 2005, published 2010).

SMILES | melting point
CCCCCS(=O)(=O)NC(=O)CCc1ccc(OCCOC)cc1OC1CCCCC1 [Example 164, 3-[2-(cyclohexyloxy)-4-(2-methoxyethoxy)phenyl]-N-(pentylsulfonyl)propanamide] | 64.1 to 65.4 °C
CCCCCS(=O)(=O)NC(=O)CCc1ccc(OCCOC)cc1OCC1CCCO1 (centres unmarked) [Example 166, 3-[4-(2-methoxyethoxy)-2-(tetrahydrofuran-2-ylmethoxy)phenyl]-N-(pentylsulfonyl)propanamide] | 57.8 to 58.9 °C
CCCCCS(=O)(=O)NC(=O)CCc1ccc(OCCOC)cc1OCC1CC1 [Example 167, 3-[2-(cyclopropylmethoxy)-4-(2-methoxyethoxy)phenyl]-N-(pentylsulfonyl)propanamide] | 81.7 to 82.8 °C
CCCCCS(=O)(=O)NC(=O)CCc1ccc(OCCOC)cc1OCc1ccc(Cl)cc1Cl [Example 169, 3-[2-[(2,4-dichlorobenzyl)oxy]-4-(2-methoxyethoxy)phenyl]-N-(pentylsulfonyl)propanamide] | 106.7 to 108.2 °C
CCCCCS(=O)(=O)NC(=O)CCc1ccc(OCCOC)cc1Oc1ncc(Cl)cc1Cl [Example 171, 3-[2-[(3,5-dichloropyridin-2-yl)oxy]-4-(2-methoxyethoxy)phenyl]-N-(pentylsulfonyl)propanamide] | 92.2 to 93.6 °C
CCCCCS(=O)(=O)NC(=O)/C=C/c1ccc(OCCOC)cc1Oc1cc(C(F)(F)F)ccc1[N+](=O)[O-] [Example 174, (2E)-3-{4-(2-methoxyethoxy)-2-[2-nitro-5-(trifluoromethyl)phenoxy]phenyl}-N-(pentylsulfonyl)acrylamide] | 164.5 to 165.2 °C
CCCCCS(=O)(=O)NC(=O)/C=C/c1ccc(OCCOC)cc1Nc1ccc(C(F)(F)F)cc1 [Example 176, (2E)-3-(4-(2-methoxyethoxy)-2-{[4-(trifluoromethyl)phenyl]amino}phenyl)-N-(pentylsulfonyl)acrylamide] | 142.3 to 142.6 °C
CCCCCS(=O)(=O)NC(=O)/C=C/c1ccc(OCCOC)cc1Cc1ncc(Br)s1 [Example 178, (2E)-3-[2-[(5-bromo-1,3-thiazol-2-yl)methyl]-4-(2-methoxyethoxy)phenyl]-N-(pentylsulfonyl)acrylamide] | 88.5 to 89.1 °C
CCCCCS(=O)(=O)NC(=O)/C=C/c1ccc(OCCOC)cc1Nc1ccc(C(F)(F)F)cc1Cl [Example 184, (2E)-3-[2-{[2-chloro-4-(trifluoromethyl)phenyl]amino}-4-(2-methoxyethoxy)phenyl]-N-(pentylsulfonyl)acrylamide] | 173.5 to 174.8 °C
CCCCCS(=O)(=O)NC(=O)/C=C/c1ccc(OCCOC)cc1Oc1ncc([N+](=O)[O-])cc1C [Example 185, (2E)-3-{4-(2-methoxyethoxy)-2-[(3-methyl-5-nitropyridin-2-yl)oxy]phenyl}-N-(pentylsulfonyl)acrylamide] | 148 to 150.3 °C
CCCCCS(=O)(=O)NC(=O)/C(=C/c1ccc(OCCOC)cc1Oc1ncc(Cl)cc1Cl)CC [Example 188, (2E)-2-[2-[(3,5-dichloropyridin-2-yl)oxy]-4-(2-methoxyethoxy)benzylidene]-N-(pentylsulfonyl)butanamide] | 118 to 118.4 °C
CCCCCS(=O)(=O)NC(=O)/C=C/c1ccc(OCCOC)cc1NC(=O)c1ccc(Cl)cc1Cl [Example 189, 2,4-dichloro-N-(5-(2-methoxyethoxy)-2-{(1E)-3-oxo-3-[(pentylsulfonyl)amino]prop-1-en-1-yl}phenyl)benzamide] | 176.8 to 177.1 °C
CCCCCS(=O)(=O)NC(=O)/C=C/c1ccc(OCCOC)cc1NC(=O)c1ccc(F)cc1F [Example 191, 2,4-difluoro-N-(5-(2-methoxyethoxy)-2-{(1E)-3-oxo-3-[(pentylsulfonyl)-amino]prop-1-en-1-yl}phenyl)benzamide] | 140 to 140.8 °C

Other lines, results leading:

melting point | SMILES
149.5 to 150.2 °C | CCCCCS(=O)(=O)NC(=O)/C=C/c1ccc(OCCOC)cc1Oc1ncc(NC(=O)OC(C)(C)C)cc1C [Example 192, tert-butyl [6-(5-(2-methoxyethoxy)-2-{(1E)-3-oxo-3-[(pentylsulfonyl)amino]prop-1-en-1-yl}phenoxy)-5-methylpyridin-3-yl]carbamate]
141 to 144 °C | CCCCCS(=O)(=O)NC(=O)/C=C/c1ccc(OCCOC(C)=O)cc1Oc1ncc(C(F)(F)F)cc1Cl [Example 194, 2-(3-{[3-chloro-5-(trifluoromethyl)pyridin-2-yl]oxy}-4-{(1E)-3-oxo-3-[(pentylsulfonyl)amino]prop-1-en-1-yl}phenoxy)ethyl acetate]
126.5 to 128.5 °C | CCCCCS(=O)(=O)NC(=O)/C=C/c1ccc(OCC2CCCO2)cc1Oc1ncc(C(F)(F)F)cc1Cl (centres unmarked) [Example 195, (2E)-3-[2-{[3-chloro-5-(trifluoromethyl)pyridin-2-yl]oxy}-4-(tetrahydrofuran-2-ylmethoxy)phenyl]-N-(pentylsulfonyl)acrylamide]
139 to 140 °C | COCOc1cc(/C=C/S(=O)(=O)NC(=O)OC(C)(C)C)n(Cc2ccc(Cl)cc2Cl)n1 [Example 200, tert-butyl-({(E)-2-[1-(2,4-dichlorobenzyl)-3-(methoxymethoxy)-1H-pyrazol-5-yl]vinyl}sulfonyl)carbamate]
114 to 115 °C | COCCCS(=O)(=O)NC(=O)CCc1ccc(OC(C)C)cc1Oc1ncc(C(F)(F)F)cc1Cl [Example 202, 3-(2-{[3-chloro-5-(trifluoromethyl)pyridin-2-yl]oxy}-4-isopropoxyphenyl)-N-[(3-methoxypropyl)sulfonyl]propanamide]
123 to 123.5 °C | COCCOc1ccc(CCCOC(=O)NS(=O)(=O)NCCC(C)C)c(Oc2ncc(C(F)(F)F)cc2Cl)c1 [Example 203, 3-[2-{[3-chloro-5-(trifluoromethyl)pyridin-2-yl]oxy}-4-(2-methoxyethoxy)phenyl]propyl {[(3-methylbutyl)amino]sulfonyl}carbamate]
110 to 113 °C | COCCOc1ccc(CCCOC(=O)NS(=O)(=O)NCCc2ccccc2)c(Oc2ncc(C(F)(F)F)cc2Cl)c1 [Example 206, 3-[2-{[3-chloro-5-(trifluoromethyl)pyridin-2-yl]oxy}-4-(2-methoxyethoxy)phenyl]propyl {[(2-phenylethyl)amino]sulfonyl}carbamate]
102 to 103 °C | CCCCN(C(=O)CCc1ccc(OCCOC)cc1Oc1ncc(C(F)(F)F)cc1Cl)S(N)(=O)=O [Example 212, N-(aminosulfonyl)-N-butyl-3-[2-{[3-chloro-5-(trifluoromethyl)pyridin-2-yl]oxy}-4-(2-methoxyethoxy)phenyl]propanamide]
101 to 101.1 °C | COCCOc1ccc(CCC(=O)N(CCOC)S(N)(=O)=O)c(Oc2ncc(C(F)(F)F)cc2Cl)c1 [Example 213, N-(aminosulfonyl)-3-[2-{[3-chloro-5-(trifluoromethyl)pyridin-2-yl]oxy}-4-(2-methoxyethoxy)phenyl]-N-(2-methoxyethyl)propanamide]
120 to 122 °C | CCCCCNS(=O)(=O)NC(=O)/C=C/c1ccc(OCCOC)cc1Oc1ncc(C(F)(F)F)cc1Cl [Example 215, (2E)-3-[2-{[3-chloro-5-(trifluoromethyl)pyridin-2-yl]oxy}-4-(2-methoxyethoxy)phenyl]-N-[(pentylamino)sulfonyl]acrylamide]
